Reference: patent US10363231B2, “Compounds and methods of treating ocular disorders” (CASE WESTERN RESERVE UNIVERSITY, priority 2014, dated 2019)

Columns and labels:
[1] = system: Abca4^−/−Rdh8^−/− mice; test: Toxicity in treated Abca4−/−Rdh8−/− mice (Table 2); type: in vivo; details: 4-week-old Abca4−/−Rdh8−/− mice, oral gavage
Description: (§1) Abca4^−/−Rdh8^−/− double knockout mice were generated as previously described. Mice were housed in the animal facility at the School of Medicine, Case Western Reserve University, where they were maintained under either complete darkness or in a 12-h light (˜300 lux) and 12-h dark cycle. All tested primary amines were suspended in 100 μl of soybean oil with less than 10% (v/v) DMSO and were administered by oral gavage with a 22-gauge feeding needle. Experimental manipulations in the dark were done under dim red light transmitted through a Kodak No. 1 safelight filter (transmittance >560 nm). All animal procedures and experiments were approved by the Case Western Reserve University Animal Care Committees and conformed to recommendations of the American Veterinary Medical Association Panel on Euthanasia and the Association of Research for Vision and Ophthalmology.
(§2) For practical reasons, only eight of these leading compounds (QEA-B-001-NH2, B-002-NH2, C-001-NH2, C-003-NH2, C006-NH2, E-002-NH2, TEA-B-002-NH2, and C00-2-NH2) along with retinylamine as a control were selected for further testing in Abca4^−/−Rdh8^−/− mice, an animal model for light-induced retinal degeneration (Table 2). Additionally, two novel amines with moderate inhibition of RPE65 (QEA-A-006-NH2 and QEA-B-003-NI 12) and one with strong inhibition (QEA-A-005-NH2) were added to the first test group for comparison. Mice were gavaged with 1 mg of a test compound and then kept in the dark for 24 h prior to being exposed to bright light (˜10,000 lux) for 1 h. Retinal damage was assessed with OCT that measured the thickness of the outer nuclear layer and by quantification of tissue 11-cis retinal levels. An example is shown for imaging results in FIG. 4A and for 11-cis-retinal quantification in FIG. 4B. Additionally, extracts of livers obtained from treated mice were analyzed by HPLC to estimate the amounts of corresponding amides (FIG. 4C).

[2] = Analysis of retinoid composition in mouse tissues: amide forms in liver by HPLC; type: in vivo, mice; details: oral gavage; for Protection by amide in liver: 4-week-old Abca4−/−Rdh8−/− mice, dark 24 h, liver extracts by HPLC
Description: as §1
Two mg of primary amines were administered by oral gavage to 4-week-old Abca4^−/−Rdh8^−/− mice, which then were kept in the dark for 24 h. Then mice were euthanized, and their livers were homogenized in 1 ml of 10 mM sodium phosphate buffer, pH 7.4, containing 50% methanol (v/v). The resulting mixture was extracted with 4 ml of hexanes. Extracts were dried in vacuo, and reconstituted in 300 μl of hexanes. 100 μl of this solution was analyzed by HPLC as described above for the LRAT activity assay.
as §2

[3] = target: T1, LRAT (Bos taurus, UniProt Q9BGL2); test: LRAT activity assay with bovine RPE microsomes (esterification of the corresponding primary alcohols); type: biochemical; details: for LRAT Substrate: percentage of the corresponding primary alcohol esterified by LRAT in 1 h at 37° C, 10 μM, RPE microsomes
T1 construct: incubated with RPF microsomes that served as a source of LRAT enzymatic activity; from tissue; host or cells: bovine retinal pigment epithelium (RPE) microsomes
T1 sequence (Q9BGL2 1-230): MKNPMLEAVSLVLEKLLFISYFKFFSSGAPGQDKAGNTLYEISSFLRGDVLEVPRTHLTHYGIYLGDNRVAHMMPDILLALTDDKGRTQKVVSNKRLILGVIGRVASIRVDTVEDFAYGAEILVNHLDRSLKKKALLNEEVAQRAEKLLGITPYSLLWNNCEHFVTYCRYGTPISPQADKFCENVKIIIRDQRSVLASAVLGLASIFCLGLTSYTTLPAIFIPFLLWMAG
Description: Bovine RPE microsomes were isolated from RPE homogenates by differential centrifugation as previously described. The resulting microsomal precipitate was resuspended in 10 mM Bis-Tris propane/HCl buffer, pH 7.4, to achieve a total protein concentration of […]. Then the mixture was placed in a quartz cuvette and irradiated for 6 min at 4° C. with a ChromatoUVE transilluminator (model TM-15; UVP) to eliminate residual retinoids. After irradiation, DTT was added to the RPE microsomal mixture to achieve a final concentration of 5 mM.
Two μl of a synthesized primary alcohol or amine dissolved in DMF (final concentration 10 μM) and 2 μl of 1,2-diheptanoyl-sn-glicerol-3-phosphocholine (water, final concentration 1 mM) were added to 200 μl of 10 mM Bis-Tris propane/HCl buffer, pH 7.4, containing 150 μg of RPE microsomes and 1% (v/w) BSA. The resulting mixture was incubated at 37° C. for 1 h. The reaction was quenched by adding 300 μl of methanol. Most reaction products were extracted with 300 μl of hexanes, except for products from the QEA-C-006 and QEA-G groups which were extracted by adding 300 μl of ethyl acetate and 300 μl of water.
Reaction products were separated and quantified by normal phase HPLC (Agilent Sil 5 μm, 4.6 mm×250 mm) in stepwise gradient of ethyl acetate in hexanes (0-15 min, 10%; 20-30 min, 30%) at a flow rate of 1.4 ml·min^−1.
The properties of retinoid derivatives were examined by two standard enzymatic tests, the […] and retinoid isomerization assays. To identify substrates of LRAT, aldehydes were reduced by sodium borohydrate to their corresponding primary alcohols that then were directly used in the esterification assay (FIG. 2B).
The alcohols were incubated with RPF microsomes that served as a source of LRAT enzymatic activity. Products of the enzymatic reaction as well as the remaining substrates were extracted with organic solvents and analyzed by HPLC. The ratio between a substrate and its esterified form was used to measure enzymatic activity efficiency, based on equivalent UV absorption of the substrate and product at their specific UV maxim wavelengths. Compounds classified as ‘good’ LRAT substrates converted at least 50% of their available alcohol substrates into corresponding esters under these experimental conditions, whereas marginal LRAT substrates were converted at less than 5%. Alcohols with a 5-50% conversion ratio were classified as weak substrates. Among 35 tested compounds, 23 were categorized as good and 9 as weak substrates; 3 compounds were not esterified by LRAT (Table 1 and FIG. 2C). […] Moreover, breaking double bond conjugation along the polyene chain or deletion of a C9 and/or a C13 methyl group also was allowed.

SMILES	Toxicity [1]	Protection by amide in liver [2]	LRAT Substrate [3] [%]	amidation in vivo (accumulation of amide forms in mouse liver) ([2]; liver HPLC)	LRAT substrate class ([3]; conversion of the alcohol to ester)
CC1=C(/C=C/C(C)=C/C=C/C(C)=C/CN)C(C)(C)CCC1 [QEA-A-001-NH2, retinylamine]	None	Strong	100	–	–
CC(/C=C/C=C(/C=C/C1=CCCCC1)C(C)(C)C)=C\CN [QEA-B-001-NH2]	Yes	Strong	80	efficiently converted into amides	good (Compounds classified as ‘good’ LRAT substrates converted at least 50% of their available alcohol substrates into corresponding esters)
